System: primary osteoblastic cells of foetal rat calvariae
Assay: DNA synthesis assay in primary cultures of osteoblasts from fetal rat calvariae (3H-thymidine incorporation)
Type: cell-based
Conditions: 1 μg/ml; 24 hours incubation, methyl-3H-thymidine during the last 3 hours; medium containing BSA control = 100%
Procedure: Compounds of formula (I) were examined in a DNA synthesis assay in primary cultures of osteoblasts from fetal rat calvariae. The experiments were carried out in accordance with Pfeilschifter et al., Endocrinology 126, 703 (1990).
Primary osteoblasts were isolated from foetal rat calvariae by sequential digestion with collagenase. In this process 5 cell fractions were obtained. A pool from the cell fractions 3-5 were cultured in vitro. The cells were cultured in an incubator at a relative air humidity of 95%, a CO2 content of 5% and a temperature of 37° C. The test substances were examined in the cultures of the first, second or third cell passage. For the examinations the cells were sown at a cell count of 7×10^3 cells (in 100 μl culture medium)/well in microtitre plates at least 76 hours before applying the test substances. MEM Dulbecco (plus 4.5 g/l glucose plus 3.7 g/l NaHCO3 without glutamine) was used as the culture medium to which 5% foetal calf serum (FCS) and […] penicillin/streptomycin had been added. Immediately before addition of the test substances to the cell culture the medium was replaced by 150 μl medium which contained 1 mg/ml bovine serum albumin (BSA) instead of FCS. Test substances were added at the desired concentrations to the medium containing BSA. TGFβ1 (transforming growth factor β1) at concentrations of 0.1-0.2 ng/ml were also examined as a positive control. Three determinations were carried out per (positive) control or substance concentration. The cell cultures were incubated for 24 hours with test substances, a thymidine probe (1 μCi methyl-^3H-thymidine in 20 μl PBS solution) being additionally present during the last 3 hours. At the end of the incubation period the cell cultures were washed three times with 0.9% saline solution and subsequently admixed with 100 μl liquid scintillator each time (OptiPhase Supermix TM®). Afterwards the radioactivity incorporated into the DNA was measured in cpm in a liquid scintillation counter (1450 MicroBeta®). Cell cultures which had only received medium containing BSA served as controls (100%).

SMILES | Rate of DNA synthesis of primary osteoblastic cells of foetal rat calvariae in percent compared to the control (=100%) [%]
CCCCCCCCC#CCCCCCCCC(=O)NC(CO)CCCC (stereo not drawn) [Example 20] | 250
CCCCC/C=C\C/C=C\CCCCCCCC(=O)NC(CO)CCCC (stereo not drawn) [Example 24] | 223
CCCCCCCC/C=C/CCCCCCCC(=O)NC(CO)CCCC (stereo not drawn) [Example 21] | 188
CCCCCCCC/C=C\CCCCCCCC(=O)NC(CO)CCCC (stereo not drawn) [Example 26] | 296
CC/C=C\C/C=C\C/C=C\CCCCCCCC(=O)N[C@@H](CO)CCCC (stereo in doubt) [Example 9] | 367
CCCCC/C=C\C/C=C\CCCCCCCC(=O)N[C@@H](CO)CCCC (stereo in doubt) [Example 10] | 475
CCCCCC/C=C\CCCCCCCC(=O)NC(CO)CCCC (stereo not drawn) [Example 11] | 191
CCCCC/C=C\C/C=C\CCCCCCCC(=O)N[C@H](CC)CO (stereo in doubt) [Example 27] | 252
CCCC/C=C\CCCCCCCC(=O)NC(CO)CCCC (stereo not drawn) [Example 19] | 298
